Assay results taken from patent US20180343865A1, “HERBICIDAL COMPOSITIONS COMPRISING ISOXAZOLO[5,4-B]PYRIDINES” (BASF SE, priority 2015, published 2018).

Assays:
Type in all cases: in vivo
[1] = test system: Abutilon theoprasti; test: Greenhouse postemergence herbicidal activity on ABUTH, 20 DAT; settings: for % activity, solo MCPA: 20 DAT
Method: (§1) For the post emergence treatment, the plants were first grown to the 2 leaf station (GS 12) and applied at GS 12-19 depending on the species. The herbicidal compositions were suspended or emulsified in water as distribution medium and sprayed using finely distributing nozzles.
(§2) The plants have been cultivated due to their individual requirements at 10 to 25° C. and. 20 to 35° C. The plants were irrigated due to their necessity.
(§3) The respective stated components A), were formulated as a 5% by weight strength emulsion concentrate containing wettol EM 31 20% and Cyclohexanone 80%. The respective stated components B), were formulated as either emulsifiable concentrates (EC), soluble liquids (SL), suspension concentrates (SC) or soluble granules (SG) as indicated in the table below. Component A, component B and the solvent system are introduced into the spray liquor used for applying the active compound. In the examples, the solvent used was water containing 1% Dash (Agnique ME 181 37.5%, Lutensit A-EP 22.5%, and Oleic Acid 5%) and 2% ammonium suflate.
(§4) In the following experiments, the herbicidal activity for the individual herbicide compounds (solo and mixture applications), the herbicidal succession was assessed 20 days after treatment (DAT). The evaluation for the damage on undesired weeds caused by the chemical compositions was carried out using a scale from 0 to 100%, compared to the untreated control plants. Here, 0 means no damage and 100 means complete destruction of the plants. The plants used in the greenhouse experiments belonged to the following species:
(§5) The value E, which corresponds to the effect (in %) that is to be expected if the activity of the individual compounds is additive, was calculated using the method of S. R. Colby (1967) “Calculating synergistic and antagonistic responses of herbicide combinations”, Weeds 15, p. 22 ff. Colby calculation for 2 way mixtures:
(§6) where: • X=effect in percent using herbicide A at an application rate a; • Y=effect in percent using herbicide B at an application rate b; • E=expected effect (in %) of A+B at application rates a+b
(§7) If the value observed in this manner is higher than the value E calculated according to Colby, a synergistic effect is present.

[2] = test system: Ambrosia elatior; test: Greenhouse postemergence herbicidal activity on AMBEL, 20 DAT; settings: for % activity, solo MCPA: AMBEL, postemergence, 20 DAT
Method: as §1, §2, §3, §4, §5, §6, §7

[3] = test system: Polygonum convolvulus; test: Greenhouse postemergence herbicidal activity on POLCO, 20 DAT; settings: for % activity, solo MCPA: 20 DAT
Method: as §1, §2, §3, §4, §5, §6, §7

[4] = test system: Amaranthus retroflexus; test: Greenhouse postemergence herbicidal activity on AMARE, 20 DAT; settings: for % activity, solo MCPA: 20 DAT
Method: as §1, §2, §3, §4, §5, §6, §7

[5] = test system: Chenopodium album; test: Greenhouse postemergence herbicidal activity on CHEAL, 20 DAT
Method: as §1, §2, §3, §4, §5, §6, §7

[6] = test system: Conyza canadiensis; test: Greenhouse postemergence herbicidal activity on ERICA, 20 DAT
Method: as §1, §2, §3, §4, §5, §6, §7

[7] = test system: Ipomoea hederacea; test: Greenhouse postemergence herbicidal activity on IPOHE, 20 DAT; settings: for % activity, solo MCPA: 20 DAT
Method: as §1, §2, §3, §4, §5, §6, §7

[8] = test system: Matricaria chamomilla; test: Greenhouse postemergence herbicidal activity on MATCH, 20 DAT; settings: for % activity, solo MCPA: 20 DAT
Method: as §1, §2, §3, §4, §5, §6, §7

[9] = test system: Polygonum aviculare; test: Greenhouse postemergence herbicidal activity on POLAV, 20 DAT
Method: as §1, §2, §3, §4, §5, §6, §7

[10] = test system: Polygonum persicaria; test: Greenhouse postemergence herbicidal activity on POLPE, 20 DAT; settings: for % activity, solo MCPA: postemergence, 20 DAT
Method: as §1, §2, §3, §4, §5, §6, §7

[11] = test system: Stellaria media; test: Greenhouse postemergence herbicidal activity on STEME, 20 DAT; settings: for % activity, solo MCPA: 20 DAT
Method: as §1, §2, §3, §4, §5, §6, §7

[12] = test system: Sorghum bicolor; test: Greenhouse postemergence herbicidal activity on SORVU, 20 DAT
Method: as §1, §2, §3, §4, §5, §6, §7

[13] = test system: Setaria viridis; test: Greenhouse postemergence herbicidal activity on SETVI, 20 DAT; settings: post-emergence, 62.5 gai/ha, read-out: % activity, solo application dicuran
Method: as §1, §2
The respective stated components A), were formulated as a 5% by weight strength emulsion concentrate containing wettol EM 31 20% and Cyclohexanone 80%. The respective stated components B), were formulated as either emulsifiable concentrates (EC), soluble liquids (SL), suspension concentrates (SC) or soluble granules (SG) as indicated in the table below. […]
In the following experiments, the herbicidal activity for the individual herbicide compounds (solo and mixture applications), the herbicidal succession was assessed 20 days after treatment (DAT). […]
The value E, which corresponds to the effect (in %) that is to be expected if the activity of the individual compounds is additive, was calculated using the method of S. R. Colby (1967) “Calculating synergistic and antagonistic responses of herbicide combinations”, Weeds 15, p. […]
as §7

[14] = test system: Galium aparine; test: Greenhouse postemergence herbicidal activity on GALAP, 20 DAT; settings: Galium aparine, post-emergence, 62.5 gai/ha, read-out: % activity, solo application dicuran
Method: as §1, §2, §3, §4, §5, §6, §7

[15] = test system: ALOMY; test: Greenhouse postemergence herbicidal activity on ALOMY, 20 DAT; settings: Alopecurus myosuroides, post-emergence, 62.5 gai/ha, read-out: % activity, solo application dicuran
[16] = test system: APESV; test: Greenhouse postemergence herbicidal activity on APESV, 20 DAT; settings: post-emergence, 62.5 gai/ha, read-out: % activity, solo application dicuran
[17] = test system: AVEFA; test: Greenhouse postemergence herbicidal activity on AVEFA, 20 DAT; settings: Avena fatua, post-emergence, 62.5 gai/ha, read-out: % activity, solo application dicuran
[18] = test system: BROST; test: Greenhouse postemergence herbicidal activity on BROST, 20 DAT; settings: post-emergence, 62.5 gai/ha, read-out: % activity, solo application dicuran
[19] = test system: CONAR; test: Greenhouse postemergence herbicidal activity on CONAR, 20 DAT; settings: post-emergence, 62.5 gai/ha, read-out: % activity, solo application dicuran
[20] = test system: DIGSA; test: Greenhouse postemergence herbicidal activity on DIGSA, 20 DAT; settings: Digitaria sanguinalis, post-emergence, 62.5 gai/ha, read-out: % activity, solo application dicuran
[21] = Ambrosia artemisiifolia, post-emergence, 480 h, read-out: % activity, solo metsulfuron
[22] = Fallopia convolvulus, post-emergence, 480 h, read-out: % activity, solo metsulfuron
[23] = Persicaria maculosa, post-emergence, 480 h, read-out: % activity, solo metsulfuron
[24] = Sorghum bicolor, post-emergence, 480 h, read-out: % activity, solo metsulfuron

Cc1cc(Cl)ccc1OCC(=O)O [MCPA]
% activity, solo MCPA ([1]; 50 gai/ha): 60% | % activity, solo MCPA ([1]; 200 gai/ha): 75% | % activity, solo MCPA ([2]; 50 gai/ha): 65% | % activity, solo MCPA ([2]; 100 gai/ha): 65% | % activity, solo MCPA ([3]; POLCO, 50 gai/ha, postemergence): 0% | % activity, solo MCPA ([3]; POLCO, 100 gai/ha, postemergence): 0% | % activity, solo MCPA ([3]; POLCO, 200 gai/ha, postemergence): 0% | % activity, solo MCPA ([4]; AMARE, 50 gai/ha, postemergence): 55% | % activity, solo MCPA ([4]; AMARE, 100 gai/ha, postemergence): 65% | % activity, solo MCPA ([4]; AMARE, 200 gai/ha, postemergence): 90% | % activity, solo MCPA ([5]; 200 gai/ha, 20 DAT): 90% | % activity, solo MCPA ([6]; ERICA, 50 gai/ha, postemergence, 20 DAT): 60% | % activity, solo MCPA ([7]; 50 gai/ha): 98% | % activity, solo MCPA ([7]; 100 gai/ha): 98% | % activity, solo MCPA ([7]; 200 gai/ha): 98% | % activity, solo MCPA ([8]; 50 gai/ha): 20% | % activity, solo MCPA ([8]; 100 gai/ha): 30% | % activity, solo MCPA ([9]; 50 gai/ha): 10% | % activity, solo MCPA ([9]; 100 gai/ha): 70% | % activity, solo MCPA ([9]; 200 gai/ha): 98% | % activity, solo MCPA ([10]; POLPE, 50 gai/ha): 20% | % activity, solo MCPA ([10]; POLPE, 200 gai/ha): 60% | % activity, solo MCPA ([10]; POPLE, 100 gai/ha): 35% | % activity, solo MCPA ([11]; STEME, 50 gai/ha, postemergence): 0% | % activity, solo MCPA ([11]; STEME, 100 gai/ha, postemergence): 0% | % activity, solo MCPA ([11]; STEME, 200 gai/ha, postemergence): 20% | % activity, solo MCPA ([12]; SORVU, 200 gai/ha, postemergence, 20 DAT): 30%

Cc1ccc(NC(=O)N(C)C)cc1Cl [dicuran, Chlorotoluron]
inhibition at 62.5 g/ha ([1]; Abutilon, post-emergence, 62.5 gai/ha, read-out: % activity, solo application dicuran): 50% | inhibition at 62.5 g/ha [13]: 0% | inhibition at 62.5 g/ha ([3]; Fallopia convolvulus, post-emergence, POLCO, 62.5 gai/ha, postemergence, read-out: % activity, solo application dicuran): 80% | inhibition at 62.5 g/ha ([4]; Amaranthus retroflexus, post-emergence, AMARE, 62.5 gai/ha, postemergence, read-out: % activity, solo application dicuran): 60% | inhibition at 62.5 g/ha ([5]; Chenopodium album, post-emergence, 62.5 gai/ha, read-out: % activity, solo application dicuran): 90% | inhibition at 62.5 g/ha ([6]; Conyza, post-emergence, ERICA, 62.5 gai/ha, postemergence, read-out: % activity, solo application dicuran): 75% | inhibition at 62.5 g/ha ([7]; Ipomoea hederacea, post-emergence, 62.5 gai/ha, read-out: % activity, solo application dicuran): 85% | inhibition at 62.5 g/ha ([8]; Matricaria chamomilla, post-emergence, 62.5 gai/ha, read-out: % activity, solo application dicuran): 85% | inhibition at 62.5 g/ha ([11]; Stellaria media, post-emergence, STEME, 62.5 gai/ha, postemergence, read-out: % activity, solo application dicuran): 85% | inhibition at 62.5 g/ha [14]: 35% | inhibition at 62.5 g/ha [15]: 0% | inhibition at 62.5 g/ha [16]: 0% | inhibition at 62.5 g/ha [17]: 0% | inhibition at 62.5 g/ha [18]: 0% | inhibition at 62.5 g/ha [19]: 0% | inhibition at 62.5 g/ha [20]: 0%

COc1nc(C)nc(=NC(=O)NS(=O)(=O)c2ccccc2C(=O)O)[nH]1 [metsulfuron, Metsulfuron]
inhibition at 0.25 g/ha [2, 21]: 0% | inhibition at 0.5 g/ha [2, 21]: 5% | inhibition at 1 g/ha [2, 21]: 98% | inhibition at 0.5 g/ha [3, 22]: 70% | inhibition at 1 g/ha [3, 22]: 95% | inhibition at 1 g/ha ([4]; Amaranthus retroflexus, post-emergence, 480 h, read-out: % activity, solo metsulfuron): 95% | inhibition at 0.5 g/ha ([6]; Conyza, post-emergence, 480 h, read-out: % activity, solo metsulfuron): 90% | inhibition at 0.5 g/ha [10, 23]: 95% | inhibition at 1 g/ha [10, 23]: 95% | inhibition at 0.25 g/ha ([11]; Stellaria media, post-emergence, 480 h, read-out: % activity, solo metsulfuron): 98% | inhibition at 0.5 g/ha [12, 24]: 20% | inhibition at 1 g/ha [12, 24]: 35%
